# Values of other authors in patent US20070298135A1, “TOPICAL HERBAL FORMULATIONS” (BIOBOTANIC CORP., priority 2006, published 2007).
compound,measurement,setting,value
C[C@@H]1CC[C@@]2(OC1)O[C@H]1C[C@H]3[C@@H]4CC=C5C[C@@H](O[C@@H]6O[C@H](CO)[C@@H](O[C@@H]7O[C@@H](C)[C@H](O)[C@@H](O)[C@H]7O)[C@H](O)[C@H]6O[C@@H]6O[C@@H](C)[C@H](O)[C@@H](O)[C@H]6O)CC[C@]5(C)[C@H]4CC[C@]3(C)[C@H]1[C@@H]2C [Doscin],solubility in lipophilic organic solvent,lipophilic organic solvent,insoluble
same,solubility in polar liquid media,"methanol, ethanol, n-butanol, water, hydrate methanol and ethanol, soluble = at least 0.1 mg/ml (w/v) at about 25° C.",soluble
